According to patent US9096607B2, “Tumor necrosis factor inhibitors” (THE TRUSTEES OF THE UNIVERSITY OF PENNSYLVANIA, priority 2005, dated 2015):
Substitutions are numbered along the chain they refer to.

Tests used:
[1] = molecular target: T1, mutant TNF-R1 (Homo sapiens, UniProt P19438, F141E/Q111E); assay: Surface plasmon resonance, TNF-α binding to mutant TNF-R1; details: SPR, mutant TNF-R1 (82E, 112E)
T1 construct: The ectodomain of wild type TNF receptor 1 was obtained by PCR from pKP13; made in house
T1 sequence (P19438 30-211 Q111E/F141E limits assumed): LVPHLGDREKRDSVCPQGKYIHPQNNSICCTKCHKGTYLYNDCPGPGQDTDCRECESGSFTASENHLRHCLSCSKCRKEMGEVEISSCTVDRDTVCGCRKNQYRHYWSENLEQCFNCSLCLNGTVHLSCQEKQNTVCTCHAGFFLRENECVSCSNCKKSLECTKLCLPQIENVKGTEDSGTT
Excerpt: (§1) Mutations of the TNF-R1 receptor were made at residues 82Q and 112F in the cavity, which were mutated to 82E and 112E respectively. The structural integrity of the mutant receptor was verified by ligand binding in surface plasmon resonance (SPR) studies. […] TNF-α retained the ability to bind to the mutant receptor, albeit with somewhat reduced affinity. These studies confirm that the test compound bound to a single and specific cavity on wild type TNF-R1.
(§2) Recombinant TNF receptor wild type and mutant were immobilized to the CM5 sensor chip with a surface density of 2,000 resonance units. The binding affinity of TNF-α to TNF-R1 was estimated by BiaCORE 3000 (BiaCORE, Uppsala, Sweden) at 25° C. The apparent rate constants (kon and koff) and the equilibrium binding constant (Kd) for TNF/TNF-R binding interaction were estimated from the kinetic analysis of sensorgrams, using the BIA evaluation 3.0 software (BiaCORE).

[2] = molecular target: T2, wild type TNF-R1 (Homo sapiens, UniProt P19438); assay: Surface plasmon resonance, TNF-α binding to wild type TNF-R1; details: SPR
T2 construct: The ectodomain of wild type TNF receptor 1 was obtained by PCR from pKP13; made in house
T2 sequence (P19438 30-211 limits assumed): T1 sequence (P19438 30-211 Q111E/F141E limits assumed) with E82Q, E112F
Excerpt: as §1, §2

Kd [1]: 4650 nM
Kd [2]: 0.379 nM
Substance: TNF-α
